In ChEMBL document CHEMBL1131400, “Synthesis and comparative evaluation of two antiviral agents: beta-L-Fd4C and beta-D-Fd4C” (Bioorg Med Chem Lett, 1998) one finds IC50 and EC50 data, which are given here for two compounds.

The subject of experiment [1] is CCRF-CEM. The experiment is described as follows: In vitro inhibitory activity against growth of HIV infected CEM cells combined with murine CTLL-2T lymphoblast cell line. Type of experiment: functional, cell-based. As to conditions: Homo sapiens.
The subject of a further experiment is Rat1. In words: In vitro inhibitory activity against growth of HIV infected Rat-1 cell line. In kind it is functional, cell-based.
The subject of another experiment is MT2. In words: In vitro inhibitory activity against growth of HIV infected MT-2/IIIB cell line. In kind it is functional, cell-based. Conditions: Homo sapiens.
The test system of experiment [2] is Human immunodeficiency virus. The experiment is described as follows: In vitro inhibitory activity against proliferation of HIV viral cell. Type of experiment: functional, organism-based. As to conditions: Human immunodeficiency virus 1.
Experiment [3] concerns CCRF-CEM. The experiment is described as follows: In vitro inhibitory activity against growth of HIV infected CEM cell line. Type of experiment: functional, cell-based. As to conditions: Homo sapiens.
A further experiment has as its system DLD-1. In words: In vitro inhibitory activity against growth of HIV infected DLD-1 cell line. Type of experiment: functional, cell-based. As to conditions: Homo sapiens.
The subject of another experiment is B16. The experiment is described as follows: In vitro inhibitory activity against growth of HIV infected B16 cell line. As to conditions: Mus musculus. In kind it is functional, cell-based.
The next experiment deals with HepG2. The experiment is described as follows: In vitro inhibitory activity against growth of HIV infected HepG2 cell line. Type of experiment: functional, cell-based. As to conditions: Homo sapiens.
In another experiment the test system is Hepatitis B virus. The experiment is described as follows: In vitro inhibitory activity against proliferation of HBV viral cell. In kind it is functional, organism-based.

One may read the IC50 as the concentration that gives 50% inhibition. As usually defined, the EC50 is the concentration at which the effect is half-maximal. The low end stands for higher potency in that assay, the high end for lower potency in that assay. Regarding `Nc1nc(=O)n([C@@H]2C=C[C@H](CO)O2)cc1F` [ELVUCITABINE], the IC50 was 24 µM with CCRF-CEM [1]; more than 200 µM in the experiment with Rat1; 9 µM with MT2; 6.5 µM in the experiment with CCRF-CEM [3]; more than 200 µM with DLD-1; more than 200 µM with B16. The compound also returned an IC50 with HepG2 of more than 200 µM. Moreover, a half-maximal response in experiment [2] (EC50) required 200 nM.
As to `Nc1nc(=O)n([C@H]2C=C[C@@H](CO)O2)cc1F` [DEXELVUCITABINE], the IC50 in the experiment with CCRF-CEM [1] was 127 µM; in the experiment on Rat1, more than 200 µM; in the experiment on MT2, 100 µM; with CCRF-CEM [3], 100 µM; in the experiment with DLD-1 it was more than 200 µM; with B16, more than 200 µM. Also, the IC50 in the experiment on HepG2 is more than 200 µM. Also, the concentration for a half-maximal effect (EC50) in experiment [2] was 200 nM; with Hepatitis B virus it was less than 300 nM.
